Measured values taken from publication PMC3177827 (PLoS ONE, 2011).
Where a SMILES comes first, the peptide text is derived from it. The star is where a group is joined. pNA = O=[N+]([O-])c1ccc(N*)cc1; Cbz = O=C(OCc1ccccc1)*

Columns and labels:
[1] = test system: pepsin; assay: Degradation of 33-mer and 26-mer gliadin peptides by pepsin; type: in vitro ADME; details: peptide 250 µg/ml; pepsin 1 µg/ml in 0.1 M HCl, pH 1.0; sampled at t = 0 and 24 h; RP-HPLC
Experimental: (§1) Synthetic highly immunogenic peptides derived from α2-gliadin ([…]; 33-mer) or γ-gliadin ([…]; 26-mer) were synthesized at a purity of 95% (21st Century Biochemicals, Marlboro, MA), dissolved in deionized water to 10 mg/ml. The peptides (final concentration 250 µg/ml) were incubated with trypsin or chymotrypsin (1 µg/ml in 50 mM ammonium bicarbonate, pH 8.0), or pepsin (1 µg/ml in 0.1 M HCl, pH 1.0) or strain WSA-8 (R. aeria) in saliva ion buffer (OD620 1.2, pH 7.0). Degradation of the 33-mer and 26-mer over time was monitored in 100 µl aliquots by RP-HPLC as reported previously.
(§2) The 100 µl sample aliquots were mixed with 900 µl buffer A containing 0.1% (v/v) trifluoroacetic acid (TFA), filtered and analyzed by RP-HPLC using a HPLC Model 715 (Gilson, Middleton, WI) and a C-18 column (TSK-GEL 5 µm, ODS-120T, 4.6×250 mm, TOSOHaas, Montgomeryville, PA). Peptides were eluted using a linear gradient from 0% to 55% buffer B containing 80% (v/v) acetonitrile and 0.1% (v/v) TFA over a 75 min time interval at a flow rate of 1.0 ml/min. The eluate was monitored at 219 and 230 nm and eluting fractions were collected using peak width and peak sensitivity settings of 1.2 and 5, respectively (Unipoint version 3.3, Gilson). […]
(§3) Figure 4 Degradation of the 33-mer by mammalian enzymes and by enzymes associated with R. aeria. […] Degradation of the 33-mer in incubation aliquots was monitored by RP-HPLC. […]

[2] = test system: chymotrypsin; assay: Degradation of 33-mer and 26-mer gliadin peptides by chymotrypsin; type: in vitro ADME; details: peptide 250 µg/ml; chymotrypsin 1 µg/ml in 50 mM ammonium bicarbonate, pH 8.0; sampled at t = 0 and 24 h; RP-HPLC
Experimental: as §1, §2, §3

[3] = test system: trypsin; assay: Degradation of 33-mer and 26-mer gliadin peptides by trypsin; type: in vitro ADME; details: peptide 250 µg/ml; trypsin 1 µg/ml in 50 mM ammonium bicarbonate, pH 8.0; sampled at t = 0 and 24 h; RP-HPLC
Experimental: as §1, §2, §3

[4] = test system: WSA-8 (R. aeria); assay: Degradation and fragment analysis of 33-mer and 26-mer in a suspension of WSA-8; type: in vitro ADME, Rothia aeria; details: peptide 250 µg/ml; WSA-8 (R. aeria) in saliva ion buffer, OD620 1.2, pH 7.0; sampled at 0, 30, 60, 120 min; RP-HPLC
Experimental: as §1
as §2, with “Peptides were eluted using a linear gradient from 0% to 55% buffer B containing 80% (v/v) acetonitrile and 0.1% (v/v) TFA over a 75 min time interval at a flow rate of 1.0 ml/min.” left out
All dried peaks were dissolved in 25 µl of a solution containing 5% acetonitrile and 0.1% formic acid. […] The raw MS/MS data of the peptide ions in each of the analyzed samples were searched against an in-house generated database containing the sequences of the 33-mer and the 26-mer using SEQUEST software (Bioworks Browser 3.3.1, Thermo-Finnigan). […]

[5] = WSA-8 cells (OD620 1.2) in 20 mM Tris solution, pH 2.0; details: Rothia aeria (strain WSA-8), up to 72 h
[6] = bacterial suspension in saliva ion buffer (OD620 1.2); details: up to 24 h
[7] = test system: WSA-8 (R. aeria); assay: pH activity analysis: Z-YPQ-pNA hydrolysis by WSA-8 cells; type: biochemical, Rothia aeria; details: Z-YPQ-pNA 200 µM, WSA-8 cells OD620 1.2, 20 mM Tris, 405 nm, activity not reactivated at neutral pH
Experimental: Figure 6 Gliadin zymography (6%) of Rothia strains and pH activity analysis. In the zymogram gels 150 µl cells (OD620 5.0) were applied per lane. Lane 1, strain WSA-2B (R. mucilaginosa); lanes 2: strain WSA-8 (R. aeria), lane 3: strain WSA-26 (R. mucilaginosa); lane 4: strain ATCC 25296 (R. mucilaginosa). A, gel developed at pH 7.0; B, gel developed at pH 3.0. C, Z-YPQ-pNA (200 µM) hydrolysis by WSA-8 cells (OD620 1.2) measured in 20 mM Tris solutions ranging in pH from 2.0 to 10.0. Measurements at 405 nm were carried out hourly for the first 6 hours and after 24 h and 72 h.
To determine protease activities under conditions that are representative of the stomach, the zymogram gel with the four Rothia strains was also developed at pH 3.0 (Figure 6B). […] To further investigate the pH range over which strain R. aeria was active, Z-YPQ-pNA substrate hydrolysis was measured in solutions ranging in pH from 2.0 to 10.0. […] Substrate hydrolysis rates decreased in parallel with decreasing pH values from pH 7.0 to pH 4.0. At pH 3.0 substrate cleavage was noted only after 72 h incubation. The slow but noticeable enzyme activity of R. aeria at this pH value is consistent with the gliadin zymogram results presented in Figure 6B.

## CC(C)C[C@H](NC(=O)[C@@H](N)Cc1ccccc1)C(=O)N[C@@H](CCC(N)=O)C(=O)N1CCC[C@H]1C(=O)N[C@@H](CCC(N)=O)C(=O)N[C@@H](CCC(N)=O)C(=O)N1CCC[C@H]1C(=O)N[C@@H](Cc1ccccc1)C(=O)N1CCC[C@H]1C(=O)N[C@@H](CCC(N)=O)C(=O)N[C@@H](CCC(N)=O)C(=O)N1CCC[C@H]1C(=O)N[C@@H](CCC(N)=O)C(=O)N[C@@H](CCC(N)=O)C(=O)N1CCC[C@H]1C(=O)N[C@@H](Cc1ccc(O)cc1)C(=O)N1CCC[C@H]1C(=O)N[C@@H](CCC(N)=O)C(=O)N[C@@H](CCC(N)=O)C(=O)N1CCC[C@H]1C(=O)N[C@@H](CCC(N)=O)C(=O)N[C@@H](CCC(N)=O)C(=O)N1CCC[C@H]1C(=O)N[C@@H](Cc1ccccc1)C(=O)N1CCC[C@H]1C(=O)N[C@@H](CCC(N)=O)C(=O)O [26-mer] (H-FLQPQQPFPQQPQQPYPQQPQQPFPQ-OH)
[1]
  degradation by pepsin: resistant to degradation
[2]
  degradation by chymotrypsin: resistant to degradation
[3]
  degradation by trypsin: resistant to degradation
[4]
  degradation in a cell suspension of WSA-8 over the 2 h time interval: sensitive to proteolytic degradation

## CC(C)C[C@H](NC(=O)[C@H](CCC(N)=O)NC(=O)[C@@H](N)CC(C)C)C(=O)N[C@@H](CCC(N)=O)C(=O)N1CCC[C@H]1C(=O)N[C@@H](Cc1ccccc1)C(=O)N1CCC[C@H]1C(=O)N[C@@H](CCC(N)=O)C(=O)N1CCC[C@H]1C(=O)N[C@@H](CCC(N)=O)C(=O)N[C@@H](CC(C)C)C(=O)N1CCC[C@H]1C(=O)N[C@@H](Cc1ccc(O)cc1)C(=O)N1CCC[C@H]1C(=O)N[C@@H](CCC(N)=O)C(=O)N1CCC[C@H]1C(=O)N[C@@H](CCC(N)=O)C(=O)N[C@@H](CC(C)C)C(=O)N1CCC[C@H]1C(=O)N[C@@H](Cc1ccc(O)cc1)C(=O)N1CCC[C@H]1C(=O)N[C@@H](CCC(N)=O)C(=O)N1CCC[C@H]1C(=O)N[C@@H](CCC(N)=O)C(=O)N[C@@H](CC(C)C)C(=O)N1CCC[C@H]1C(=O)N[C@@H](Cc1ccc(O)cc1)C(=O)N1CCC[C@H]1C(=O)N[C@@H](CCC(N)=O)C(=O)N1CCC[C@H]1C(=O)N[C@@H](CCC(N)=O)C(=O)N1CCC[C@H]1C(=O)N[C@@H](Cc1ccccc1)C(=O)O [33-mer] (H-LQLQPFPQPQLPYPQPQLPYPQPQLPYPQPQPF-OH)
[1]
  degradation by pepsin: resistant to degradation
[2]
  degradation by chymotrypsin: resistant to degradation
[3]
  degradation by trypsin: resistant to degradation

## Cbz-Tyr-Pro-Gln-pNA
[5]
  not cleaved: no Z-YPQ-pNA hydrolysis could be observed
[6]; Bifidobacterium dentium HOT-588 (strain PAN-5)
  not cleaved: − after 24 h
[6]; Bifidobacterium dentium HOT-588 (strain PAN-8)
  not cleaved: − after 24 h
[6]; Bifidobacterium dentium HOT-588 (strain PAN-18)
  not cleaved: − after 24 h
[6]; Bifidobacterium dentium HOT-588 (strain PAN-19)
  not cleaved: − after 24 h
[6]; Bifidobacterium dentium HOT-588 (strain PAN-23)
  not cleaved: − after 24 h
[6]; Bifidobacterium longum HOT-B54 (strain WSAN-14)
  not cleaved: − after 24 h
[6]; Bifidobacterium longum HOT-B54 (strain WSAN-16)
  not cleaved: − after 24 h
[6]; Bifidobacterium longum HOT-B54 (strain WSAN-24)
  not cleaved: − after 24 h
[6]; Staphylococcus epidermidis HOT-601 (strain WSA-10)
  not cleaved: − (inactive) after 24 h
[6]; Streptococcus pneumoniae HOT-734 (strain PAN-0)
  not cleaved: − after 24 h
[6]; Veilonella atypica HOT-524 (strain WSAN-25)
  not cleaved: − after 24 h

## benzyloxycarbonyl-YPQ-paranitroanilide [Z-YPQ-pNA]
[7]
  substrate hydrolysis at pH 2.0: no Z-YPQ-pNA hydrolysis could be observed
